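Five concentrations, 48 hours, 96-well plates. TGI denotes the concentration required for complete inhibition of growth.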
What was measured:
Assay in all cases: DTP human tumour cell line panel, 48 h
DLD-1 colon = tested on: DLD-1 colon
HL-60(TB) leukemia = tested on: HL-60(TB) leukemia
IGROV1 ovarian = tested on: IGROV1 ovarian
K-562 leukemia = tested on: K-562 leukemia
LXFL 529 NSCLC = tested on: LXFL 529 NSCLC
SF-268 CNS = tested on: SF-268 CNS
SK-MEL-28 melanoma = tested on: SK-MEL-28 melanoma
SK-MEL-5 melanoma = tested on: SK-MEL-5 melanoma
SNB-75 CNS = tested on: SNB-75 CNS
SNB-78 CNS = tested on: SNB-78 CNS
MDA-N = tested on: MDA-N
NCI/ADR-RES ovarian = tested on: NCI/ADR-RES ovarian

SMILES	TGI (DLD-1 colon) [µM]	TGI (HL-60(TB) leukemia) [µM]	TGI (IGROV1 ovarian) [µM]	TGI (K-562 leukemia) [µM]	TGI (LXFL 529 NSCLC) [µM]	TGI (SF-268 CNS) [µM]	TGI (SK-MEL-28 melanoma) [µM]	TGI (SK-MEL-5 melanoma) [µM]	TGI (SNB-75 CNS) [µM]	TGI (SNB-78 CNS) [µM]	TGI (MDA-N) [µM]	TGI (NCI/ADR-RES ovarian) [µM]
O=[As](O)(O)c1cc(N=Nc2ccc(-c3ccc(N=Nc4cc([As](=O)(O)O)c(O)cc4O)cc3)cc2)c(O)cc1O	> 59.2	> 67.6	> 100	> 100	> 100	> 100	> 100	> 100	> 100	> 100	–	–
CCN(CC)CCCNc1ccc2nnn3c4ccc(O)cc4c(=O)c1c23	19	33.2	19.4	53.3	21.2	18.6	32	22.6	20.2	32.5	20.9	22.9
C=C1C[C@]23C[C@@]1(O)CC[C@H]2[C@@]12C=C[C@H](O)[C@@](C)(C(=O)O1)[C@H]2[C@@H]3C(=O)O	> 100	> 100	> 100	> 100	–	> 100	> 100	> 100	> 100	> 100	–	–
CC(C)(C)OC(=O)N1C(OP(=O)(Oc2ccccc2)Oc2ccccc2)=COc2cccnc21	–	36.6	> 100	> 100	–	> 100	> 100	35.5	> 100	–	> 100	> 100
O=C(Nc1cccc(-c2cn3ccccc3n2)c1)c1ccncc1	–	45.8	> 100	61	–	> 100	> 100	71.4	> 100	–	> 100	65.1
Cc1[nH]c(-c2ccccc2)c(-c2ccc(Cl)cc2)c1C(=O)ONC(=O)c1ccccc1	–	3.29	2.52	16.7	–	6.9	24.9	14.1	15.1	–	4.45	14.2
NC(=O)CC(Nc1ncc2c(n1)-c1ccccc1OC2)C(=O)O (stereo not drawn)	–	36.8	> 100	> 100	–	> 100	> 100	> 100	> 100	–	> 100	> 100
CCOC(=O)C(Cc1ccccc1)(Cc1ccc(O)cn1)NC(=O)c1ccccc1 (stereo not drawn)	–	43.8	96.7	> 100	–	61.7	> 100	36.6	> 100	–	23	> 100
CCOP(=O)(OCC)C(Nc1ccc(F)cc1)c1cccc([N+](=O)[O-])c1 (stereo not drawn)	–	> 100	> 100	> 100	–	> 100	> 100	> 100	> 100	–	> 100	> 100
CC1(C)C2CC(c3ccncc3)ON2C(C)(C)N1O (stereo not drawn)	–	> 100	> 100	> 100	–	> 100	> 100	> 100	> 100	–	> 100	> 100
CN1C2CC(=O)CC1[C@@H]1OC(c3ccccc3)O[C@H]21 (stereo partly drawn)	–	> 100	> 100	> 100	–	> 100	> 100	> 100	> 100	–	> 100	> 100
CCOC(=O)C(C(=O)Cc1ccccc1)c1ccccc1 (stereo not drawn)	> 100	> 100	> 100	> 100	> 100	> 100	> 100	> 100	> 100	> 100	–	–

Reference: PubChem BioAssay (NCI)
